Test results as given in ChEMBL document CHEMBL5576113, “A method for estimation of plasma protein binding using diffusion ordered NMR spectroscopy (DOSY)” (RSC Med Chem, 2024).

Assays:
Albumin [1] = target: T1, Albumin (Bos taurus, UniProt P02769); experiment: Plasma protein binding in bovine serum albumin assessed as fraction bound at 10:1 ratio of compound and BSA by 1H DOSY NMR spectrophotometric analysis; assay type: ADME; details: cattle, read-out: PPB (converted)
Albumin [2] = target: T1, Albumin; experiment: Plasma protein binding in bovine serum albumin assessed as fraction bound at 5:1 ratio of compound and BSA by 1H DOSY NMR spectrophotometric analysis; assay type: ADME; details: cattle, read-out: PPB (converted)
Albumin [3] = target: T1, Albumin; experiment: Plasma protein binding in bovine serum albumin assessed as fraction bound at 20:1 ratio of compound and BSA by 1H DOSY NMR spectrophotometric analysis; assay type: ADME; details: cattle, read-out: PPB (converted)
Albumin [4] = target: Albumin (Homo sapiens, UniProt P02768); experiment: Plasma protein binding in human albumin at 1 to 20 ug/ml incubated for 30 mins; assay type: ADME; details: at 1 to 20 µg/mL, dose 1-20 µg/ml, read-out: PPB (converted)
Sequence of Albumin (Homo sapiens, UniProt P02768) (P02768 whole entry): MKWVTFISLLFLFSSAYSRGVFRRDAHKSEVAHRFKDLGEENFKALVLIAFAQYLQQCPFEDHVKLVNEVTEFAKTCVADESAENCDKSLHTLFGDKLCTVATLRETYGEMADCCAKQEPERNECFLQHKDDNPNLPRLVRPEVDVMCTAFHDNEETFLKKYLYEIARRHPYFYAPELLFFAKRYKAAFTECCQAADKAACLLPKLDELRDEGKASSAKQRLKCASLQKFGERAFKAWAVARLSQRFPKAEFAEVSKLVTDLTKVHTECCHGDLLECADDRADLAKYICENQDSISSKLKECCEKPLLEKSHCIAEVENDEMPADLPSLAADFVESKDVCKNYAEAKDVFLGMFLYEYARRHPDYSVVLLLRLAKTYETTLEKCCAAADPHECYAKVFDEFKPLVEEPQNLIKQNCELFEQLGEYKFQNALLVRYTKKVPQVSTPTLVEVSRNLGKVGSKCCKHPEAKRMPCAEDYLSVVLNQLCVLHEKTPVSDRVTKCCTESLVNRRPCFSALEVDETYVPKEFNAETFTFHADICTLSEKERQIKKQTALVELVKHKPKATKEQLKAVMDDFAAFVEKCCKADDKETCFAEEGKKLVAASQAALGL

[5] = Plasma protein binding in human plasma incubated for 18 hrs by equilibrium dialysis

T1 sequence (P02769 whole entry): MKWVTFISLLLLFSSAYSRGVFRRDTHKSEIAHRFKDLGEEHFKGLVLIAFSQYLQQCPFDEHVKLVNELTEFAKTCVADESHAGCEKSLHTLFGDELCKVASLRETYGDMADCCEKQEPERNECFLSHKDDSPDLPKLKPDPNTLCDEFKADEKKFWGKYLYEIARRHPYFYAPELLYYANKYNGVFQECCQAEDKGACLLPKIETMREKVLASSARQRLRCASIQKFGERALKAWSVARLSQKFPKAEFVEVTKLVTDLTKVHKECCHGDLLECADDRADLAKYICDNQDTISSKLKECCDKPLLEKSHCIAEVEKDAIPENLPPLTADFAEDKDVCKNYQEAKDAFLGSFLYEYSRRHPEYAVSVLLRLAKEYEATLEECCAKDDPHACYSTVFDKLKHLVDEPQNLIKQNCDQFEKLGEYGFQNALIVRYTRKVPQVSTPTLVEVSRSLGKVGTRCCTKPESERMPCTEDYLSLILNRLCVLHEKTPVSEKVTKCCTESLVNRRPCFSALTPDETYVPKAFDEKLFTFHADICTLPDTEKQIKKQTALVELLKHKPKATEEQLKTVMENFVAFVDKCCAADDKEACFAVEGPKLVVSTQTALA

fraction unbound (Albumin [1]) | fraction unbound (Albumin [2]) | fraction unbound (Albumin [3]) | fraction unbound at 0.5 h (Albumin [4]) | SMILES | fraction unbound at 18 h [5]
0.16 | 0.1 | 0.48 |  | CC(=O)Oc1ccccc1C(=O)O [ASPIRIN] | 
0.67 | 0.27 | 0.71 | 0.625 | Cn1c(=O)c2c(ncn2C)n(C)c1=O [CAFFEINE] | 
0.02 |  | 0.04 |  | COc1ccc2nc([S@@+]([O-])Cc3ncc(C)c(OC)c3C)[nH]c2c1 [ESOMEPRAZOLE] | 
0.46 | 0.26 | 0.71 |  | N[C@H]1C(O)O[C@H](CO)[C@@H](O)[C@@H]1O (some centres not stated) [GLUCOSAMINE] | 

Further lines, the compound ahead of its results:

SMILES | fraction unbound (Albumin [1]) | fraction unbound (Albumin [2]) | fraction unbound (Albumin [3]) | fraction unbound at 0.5 h (Albumin [4]) | fraction unbound at 18 h [5]
OC[C@H]1OC(O)[C@H](O)[C@@H]1O (some centres not stated) | 0.25 | 0.11 | 0.36 |  | 
CN/C(=N/CCSCc1nc[nH]c1C)NC#N [CIMETIDINE] | 0.66 | 0.42 | 0.74 |  | 
CC(C)NCC(O)COc1cccc2ccccc12 (configuration not stated) [PROPRANOLOL] | 0.41 | 0.21 | 0.49 |  | 0.14
